Laboratory results: US9295739B2, “Folate conjugates of albumin-binding entities” (MERCK & CIE, priority 2011, dated 2016)

What was measured:
KB tumor xenografts = assay: Ex vivo biodistribution of [18F]FDG-AB-folate in nude mice bearing KB tumor xenografts; settings: 2 h p.i., n = 3
Description: In vivo experiments were performed in female nude mice bearing KB tumor xenografts.
Animals were injected with ˜3 MBq of [^18F]FDG-AB-folate 34 via a lateral tail vein. Animals were sacrificed 2 h after radiotracer injection. Organs- and tissues were dissected and measured in the γ-counter (Wizard, PerkinElmer). The incorporated radioactivity was expressed as percentage injected dose (% ID) per gram of tissue.

[1] = log D7.4 by the shake flask method; type: physicochemical

Blood (KB tumor xenografts): 2.93 ± 0.55 % ID/g | Bone (KB tumor xenografts): 1.50 ± 0.24 % ID/g | Brain (KB tumor xenografts): 0.89 ± 0.17 % ID/g | Feces (KB tumor xenografts): 53.02 ± 26.52 % ID/g | Gallbladder (KB tumor xenografts): 83.78 ± 16.78 % ID/g | Heart (KB tumor xenografts): 3.20 ± 0.53 % ID/g | Intestine (KB tumor xenografts): 8.84 ± 7.07 % ID/g | Kidneys (KB tumor xenografts): 14.98 ± 1.47 % ID/g | Liver (KB tumor xenografts): 7.14 ± 0.78 % ID/g | Lungs (KB tumor xenografts): 2.44 ± 0.58 % ID/g | Muscle (KB tumor xenografts): 1.62 ± 0.26 % ID/g | Ratio Tumor/Blood (KB tumor xenografts): 3.33 ± 0.59 | Ratio Tumor/Kidneys (KB tumor xenografts): 0.64 ± 0.07 | Ratio Tumor/Liver (KB tumor xenografts): 1.34 ± 0.16 | Salivary glands (KB tumor xenografts): 7.55 ± 0.08 % ID/g | Spleen (KB tumor xenografts): 0.81 ± 0.03 % ID/g | Stomach (KB tumor xenografts): 1.93 ± 0.51 % ID/g | Tumor (KB tumor xenografts): 9.51 ± 0.08 % ID/g | log D7.4 value [1]: −3.2±0.4
SMILES: Nc1nc2ncc(CNc3ccc(C(=O)N[C@@H](CCC(=O)NC(Cc4cn([C@@H]5OC(CO)[C@@H](O)[C@H](O)C5[18F])nn4)C(=O)N[C@@H](CCCCNC(=O)CCCc4ccc(I)cc4)C(=O)O)C(=O)O)cc3)nc2c(=O)[nH]1 (stereo partly shown) [[^18F]FDG-AB-folate]
